Laboratory results taken from article PMC10916402, “Meropenem-ANT3310, a unique β-lactam-β-lactamase inhibitor combination with expanded antibacterial spectrum against Gram-negative pathogens including carbapenem-resistant Acinetobacter baumannii” (Antimicrobial Agents and Chemotherapy, 2024).
Converted amounts (≈) assume the structure as drawn. Read-outs that look alike come from different tables or passages of the source.

Tests used:
[1] = system: A. baumannii clinical isolates; assay: Broth microdilution MIC, A. baumannii clinical isolates; type: cell-based, Acinetobacter baumannii; conditions: for CLSI % Res / CLSI % Sus: CLSI BP; for CLSI % Res: for MEM-ANT3310 % at ≥16 µg/mL; for CLSI % Sus: for MEM-ANT3310 % inhibited at ≤8 µg/mL; for EUCAST % Res / EUCAST % Sus: EUCAST BP
Procedure, shortened: (§1)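 Broth microdilution per CLSI and EUCAST in cation-adjusted Mueller Hinton broth, iron-depleted for cefiderocol; ANT3310 panels prepared fresh on test day. Isolates collected 2018–2019, identity confirmed by MALDI-TOF. MIC taken as first well without visible growth, interpreted with 2023 CLSI and EUCAST breakpoints.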

[2] = system: carbapenem-resistant Acinetobacter baumannii (CRAB) clinical isolates; assay: Broth microdilution MIC, CRAB isolates; type: cell-based; conditions: for CLSI % Res / CLSI % Sus / EUCAST % Res / EUCAST % Sus: CRAB; for CLSI % Res / CLSI % Sus: CLSI BP; for CLSI % Res: for MEM-ANT3310 % at ≥16 µg/mL; for CLSI % Sus: for MEM-ANT3310 % inhibited at ≤8 µg/mL; for EUCAST % Res / EUCAST % Sus: EUCAST BP; for MIC90: read-out: MIC90
Procedure, shortened: as §1

[3] = system: KPC-producing Enterobacterales (KPC-CRE); assay: organism not typed; type: cell-based
Procedure, shortened: as §1

[4] = system: OXA-producing Enterobacterales (OXA-CRE); assay: organism not typed; type: cell-based
Procedure, shortened: as §1

[5] = system: P. aeruginosa clinical isolates; assay: Broth microdilution MIC, P. aeruginosa clinical isolates; type: cell-based, Pseudomonas aeruginosa; conditions: 502 P. aeruginosa, 2019 global collection
Experimental: All isolates were randomly selected from the frozen culture collection of IHMA collected in 2018 and 2019. Matrix-assisted laser desorption ionization-time of flight mass spectrometry was used to confirm the identity of the organisms tested (Bruker Daltonics, Bremen, Germany).
(§2) MICs for all antimicrobial agents were determined at IHMA by broth microdilution in accordance with both CLSI ([17]) and EUCAST ([18]) guidelines. Microtiter panels were prepared by IHMA and stored at −70°C in cation-adjusted Mueller Hinton broth (CAMHB) (Becton Dickinson). Iron-depleted CAMHB was used to test cefiderocol. Panels containing ANT3310 were prepared fresh on the day of testing. […] MIC values corresponded to the first well with no visible growth. Quality control testing was performed on each day of testing with E. coli ATCC 25922, P. aeruginosa ATCC 27853, K. pneumoniae ATCC 700603 and BAA 1705, and A. baumannii NCTC 13304. MICs were interpreted using 2023 CLSI ([17]) and EUCAST ([18]) BPs.

[6] = system: A. baumannii ACC00445 (OXA-23); assay: MIC against the isolate used in the infection models; type: cell-based; conditions: Acinetobacter baumannii
Experimental: as §2

[7] = system: A. baumannii ACC00445 (OXA-23); assay: Murine thigh infection model; type: in vivo, neutropenic male CD-1 mice; conditions: 9-h model, MEM 300 mg/kg IV every 2 h alone
[8] = system: A. baumannii ACC00445 (OXA-23); assay: Murine lung infection model; type: in vivo, neutropenic male CD-1 mice; conditions: 14-h model, MEM IV 30 mg/kg
[9] = design: method as in PMID 14517194, PMID 20851549; conditions: 2 g MEM q8h as a 3-h IV infusion; cited from earlier work
[10] = design: method as in PMID 32297801; conditions: 2 g MEM q8h as a 3-h IV infusion, MEM-vaborbactam clinical trials; cited from earlier work
[11] = 2018 Global collection, All A. baumannii, N 500
[12] = 2019 Global collection, All A. baumannii, N 405
[13] = 2018 Global collection, CRAB (MEM MICs >4 µg/mL), N 363
[14] = 2019 Global collection, CRAB (MEM MICs >4 µg/mL), N 340
[15] = 180 KPC-producing Enterobacterales, EUCAST BP
[16] = 252 OXA-producing Enterobacterales, EUCAST BP

In the case of C[C@@H](O)[C@H]1C(=O)N2C(C(=O)O)=C(S[C@@H]3CN[C@H](C(=O)N(C)C)C3)[C@H](C)[C@H]12 [MEM, meropenem], the “% of isolates resistant to MEM (CLSI, MIC ≥8 µg/mL)” value ([1]; 905 A. baumannii isolates, overall) is reported as 78%, the MIC50 [1, 11] is reported as greater than 32 µg/mL and the MIC90 [1, 11] is reported as greater than 32 µg/mL. For the same compound, the “Number of isolates inhibited at MIC of 0.25 µg/mL” value [1, 11] was 52, the “Number of isolates inhibited at MIC of 0.5 µg/mL” value [1, 11] was 42 and the “Number of isolates inhibited at MIC of 1 µg/mL” value [1, 11] was 21. The “Number of isolates inhibited at MIC of 2 µg/mL” value [1, 11] was 9, the “Number of isolates inhibited at MIC of 4 µg/mL” value [1, 11] was 6 and the “Number of isolates inhibited at MIC of 8 µg/mL” value [1, 11] was 5. The “Number of isolates inhibited at MIC of 16 µg/mL” value [1, 11] was 16, the “Number of isolates inhibited at MIC of 32 µg/mL” value [1, 11] was 64 and the “Number of isolates inhibited at MIC of >32 µg/mL” value [1, 11] was 278. For the same compound, the “Number of isolates inhibited at MIC of ≤0.125 µg/mL” value [1, 11] was 7, the “CLSI % Res” value [1, 11] was 72.6% and the “CLSI % Sus” value [1, 11] was 26.2%. The “EUCAST % Res” value [1, 11] was 71.6%, the “EUCAST % Sus” value [1, 11] was 26.2% and the MIC50 [1, 12] was greater than 32 µg/mL. For the same compound, the “Number of isolates inhibited at MIC of 0.25 µg/mL” value [1, 12] was 31, the “Number of isolates inhibited at MIC of 0.5 µg/mL” value [1, 12] was 18 and the “Number of isolates inhibited at MIC of 1 µg/mL” value [1, 12] was 1. The “Number of isolates inhibited at MIC of 2 µg/mL” value [1, 12] was 5, the “Number of isolates inhibited at MIC of 4 µg/mL” value [1, 12] was 3 and the “Number of isolates inhibited at MIC of 8 µg/mL” value [1, 12] was 9. For the same compound, the “Number of isolates inhibited at MIC of 16 µg/mL” value [1, 12] was 12, the “Number of isolates inhibited at MIC of 32 µg/mL” value [1, 12] was 66 and the “Number of isolates inhibited at MIC of >32 µg/mL” value [1, 12] was 253. For the same compound, the “Number of isolates inhibited at MIC of ≤0.125 µg/mL” value [1, 12] was 7, the “CLSI % Res” value [1, 12] was 83.9% and the “CLSI % Sus” value [1, 12] was 15.3%. The “EUCAST % Res” value [1, 12] was 81.7%, the “EUCAST % Sus” value [1, 12] was 15.3% and the MEM-resistance rate ([1]; A. baumannii isolates from Asia/Pacific) was 74%. For the same compound, the MEM-resistance rate ([1]; A. baumannii isolates from Middle East) was 91%, the MEM-resistance rate ([1]; A. baumannii isolates from North America) was 40% and the MIC90 ([1]; Acinetobacter baumannii, 2018 Global collection, All A. baumannii, N 500, read-out: MIC90) was greater than 32 µg/mL. It also gave an MIC90 ([1]; Acinetobacter baumannii, 2019 Global collection, All A. baumannii, N 405, read-out: MIC90) greater than 32 µg/mL, an MIC90 ([1]; Acinetobacter baumannii, A. baumannii, one or both of the 2018/2019 collections, read-out: MIC90) of no less than 32 µg/mL and an MIC50 ([1]; Acinetobacter baumannii, combined A. baumannii 2018–2019 collection (n = 905), ANT3310 at 8 µg/mL, read-out: MIC50) greater than 32 µg/mL. For the same compound, the MIC90 ([1]; Acinetobacter baumannii, combined A. baumannii 2018–2019 collection (n = 905), ANT3310 at 8 µg/mL, read-out: MIC90) was greater than 32 µg/mL, the MIC50 [2, 13] was greater than 32 µg/mL and the “Number of isolates inhibited at MIC of 8 µg/mL” value [2, 13] was 5. For the same compound, the “Number of isolates inhibited at MIC of 16 µg/mL” value [2, 13] was 16, the “Number of isolates inhibited at MIC of 32 µg/mL” value [2, 13] was 64 and the “Number of isolates inhibited at MIC of >32 µg/mL” value [2, 13] was 278. The “CLSI % Res” value ([2]; 2018 Global collection, N 363) was 100%, the “CLSI % Sus” value ([2]; 2018 Global collection, N 363) was 0% and the “EUCAST % Res” value ([2]; 2018 Global collection, N 363) was 98.6%. The “EUCAST % Sus” value ([2]; 2018 Global collection, N 363) was 0%, the MIC50 [2, 14] was greater than 32 µg/mL and the “Number of isolates inhibited at MIC of 8 µg/mL” value [2, 14] was 9. For the same compound, the “Number of isolates inhibited at MIC of 16 µg/mL” value [2, 14] was 12, the “Number of isolates inhibited at MIC of 32 µg/mL” value [2, 14] was 66 and the “Number of isolates inhibited at MIC of >32 µg/mL” value [2, 14] was 253. The “CLSI % Res” value ([2]; 2019 Global collection, N 340) was 100%, the “CLSI % Sus” value ([2]; 2019 Global collection, N 340) was 0% and the “EUCAST % Res” value ([2]; 2019 Global collection, N 340) was 97.3%. For the same compound, the “EUCAST % Sus” value ([2]; 2019 Global collection, N 340) was 0%, the MIC90 ([2]; Acinetobacter baumannii, 2018 Global collection, CRAB (MEM MICs >4 µg/mL), N 363) was greater than 32 µg/mL and the MIC90 ([2]; Acinetobacter baumannii, 2019 Global collection, CRAB (MEM MICs >4 µg/mL), N 340) was greater than 32 µg/mL. It also gave an MIC50 ([2]; Acinetobacter baumannii, CRAB isolates 2018–2019 (n = 703), ANT3310 at 8 µg/mL, read-out: MIC50) greater than 32 µg/mL, an MIC90 ([2]; Acinetobacter baumannii, CRAB isolates 2018–2019 (n = 703), ANT3310 at 8 µg/mL) greater than 32 µg/mL and an MIC50 [3] greater than 32 µg/mL. The MIC90 [3] was greater than 32 µg/mL, the MIC90 ([3]; 180 KPC-producing Enterobacterales, 2018 global collection) was greater than 32 µg/mL and the “CLSI % Res” value ([3]; 180 KPC-producing Enterobacterales, CLSI BP, for MEM-ANT3310 % at ≥16 µg/mL) was 98.9%. The “CLSI % Sus” value ([3]; 180 KPC-producing Enterobacterales, CLSI BP, for MEM-ANT3310 % inhibited at ≤8 µg/mL) was 0%, the “EUCAST % Res” value [3, 15] was 88.3% and the “EUCAST % Sus” value [3, 15] was 1.1%. The MIC50 [4] was 16 µg/mL (≈ 41.7 µM), the MIC90 [4] was greater than 32 µg/mL and the MIC90 ([4]; 252 OXA-producing Enterobacterales, 2018 global collection) was greater than 32 µg/mL. For the same compound, the “CLSI % Res” value ([4]; 252 OXA-producing Enterobacterales, CLSI BP, for MEM-ANT3310 % at ≥16 µg/mL) was 89.7%, the “CLSI % Sus” value ([4]; 252 OXA-producing Enterobacterales, CLSI BP, for MEM-ANT3310 % inhibited at ≤8 µg/mL) was 0% and the “EUCAST % Res” value [4, 16] was 74.6%. For the same compound, the “EUCAST % Sus” value [4, 16] was 10.5%, the “Number of isolates inhibited at MIC of 0.25 µg/mL” value [5] was 97 and the “Number of isolates inhibited at MIC of 0.5 µg/mL” value [5] was 109. The “Number of isolates inhibited at MIC of 1 µg/mL” value [5] was 87, the “Number of isolates inhibited at MIC of 2 µg/mL” value [5] was 27 and the “Number of isolates inhibited at MIC of 4 µg/mL” value [5] was 25. For the same compound, the “Number of isolates inhibited at MIC of 8 µg/mL” value [5] was 27, the “Number of isolates inhibited at MIC of 16 µg/mL” value [5] was 15 and the “Number of isolates inhibited at MIC of 32 µg/mL” value [5] was 9. The “Number of isolates inhibited at MIC of >32 µg/mL” value [5] was 26, the “Number of isolates inhibited at MIC of ≤0.125 µg/mL” value [5] was 80 and the MIC50 ([5]; Pseudomonas aeruginosa, read-out: MIC50) was 0.5 µg/mL (≈ 1.3 µM). The MIC90 ([5]; Pseudomonas aeruginosa, read-out: MIC90) was 8 µg/mL (≈ 20.9 µM), the MIC [6] was 64 µg/mL (≈ 167 µM) and the “bacterial counts compared to the vehicle-treated group” value [7] was “No reductions in bacterial counts”. The “efficacy of MEM alone” value [8] was “No efficacy”, the “probability of target attainment for MEM MICs ≤8 µg/mL” value [9] was greater than 90% and the safety and tolerability [10] was “generally safe and well tolerated”.
